The supplement of paper PMC10307832

Experiments:
Assay in all cases: relative viability (nuclei count vs DMSO), 5 days (fraction); higher = more cells survive
BAY61-3606 + Bortezomib = compound: COC1=C(C=C(C=C1)C2=CC3=NC=CN3C(=N2)NC4=C(C=CC=N4)C(=O)N)OC [BAY61-3606] + CC(C)C[C@H](NC(=O)[C@H](Cc1ccccc1)NC(=O)c1cnccn1)B(O)O [Bortezomib] (partner 0.002 µM)
Outline: (§1)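 Dosing by pin tool came one day after lung cancer cell lines were seeded in 1536-well plates, using either one drug or a fixed anchor-drug dose plus five library-drug doses (not always all listed) in √10 steps. After 5 days, nuclei were counted on 4× images. Relative viability is treated-well nuclei count divided by vehicle-well nuclei count, and values are medians of duplicate plates.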

Doxorubicin + AZD7762 = compound: COc1cccc2c1C(=O)c1c(O)c3c(c(O)c1C2=O)C[C@@](O)(C(=O)CO)C[C@@H]3O[C@H]1C[C@H](N)[C@H](O)[C@H](C)O1 [Doxorubicin] + NC(=O)Nc1cc(-c2cccc(F)c2)sc1C(=O)N[C@H]1CCCNC1 [AZD7762] (partner 0.2 µM)
Outline: as §1

Doxorubicin + Phenformin = compound: COc1cccc2c1C(=O)c1c(O)c3c(c(O)c1C2=O)C[C@@](O)(C(=O)CO)C[C@@H]3O[C@H]1C[C@H](N)[C@H](O)[C@H](C)O1 [Doxorubicin] + N=C(N)NC(=N)NCCc1ccccc1 [Phenformin] (partner 250 µM)
Outline: as §1

BAY61-3606 + Vorinostat = compound: COC1=C(C=C(C=C1)C2=CC3=NC=CN3C(=N2)NC4=C(C=CC=N4)C(=O)N)OC [BAY61-3606] + O=C(CCCCCCC(=O)Nc1ccccc1)NO [Vorinostat] (partner 1 µM)
Outline: as §1

Cell Line	relative viability (BAY61-3606 + Bortezomib; first compound 0.02 µM)	relative viability (BAY61-3606 + Bortezomib; first compound 0.06325 µM)	relative viability (BAY61-3606 + Bortezomib; first compound 0.2 µM)	relative viability (BAY61-3606 + Bortezomib; first compound 0.6325 µM)	relative viability (BAY61-3606 + Bortezomib; first compound 2 µM)	relative viability (Doxorubicin + AZD7762; first compound 0.001 µM)	relative viability (Doxorubicin + AZD7762; first compound 0.003162 µM)	relative viability (Doxorubicin + AZD7762; first compound 0.01 µM)	relative viability (Doxorubicin + AZD7762; first compound 0.03162 µM)	relative viability (Doxorubicin + AZD7762; first compound 0.1 µM)	relative viability (Doxorubicin + Phenformin; first compound 0.001 µM)	relative viability (Doxorubicin + Phenformin; first compound 0.003162 µM)	relative viability (Doxorubicin + Phenformin; first compound 0.01 µM)	relative viability (Doxorubicin + Phenformin; first compound 0.03162 µM)	relative viability (Doxorubicin + Phenformin; first compound 0.1 µM)	relative viability (BAY61-3606 + Vorinostat; first compound 0.02 µM)	relative viability (BAY61-3606 + Vorinostat; first compound 0.06325 µM)	relative viability (BAY61-3606 + Vorinostat; first compound 0.2 µM)	relative viability (BAY61-3606 + Vorinostat; first compound 0.6325 µM)	relative viability (BAY61-3606 + Vorinostat; first compound 2 µM)
HCC-78	0.452	0.535	0.526	0.479	0.427	0.535	0.606	0.703	0.636	0.503	0.778	0.768	0.659	0.706	0.625	0.432	0.423	0.444	0.553	0.41
HOP-62	0.869	–	1.16	0.443	0.723	0.533	0.54	0.519	0.527	0.397	0.654	0.625	0.631	0.542	0.484	–	0.544	0.538	0.667	0.397
NCI-H3122	0.947	1.02	1.05	0.988	1	0.964	1.03	0.894	0.989	0.952	0.369	0.365	0.337	0.245	0.148	1.01	1.03	0.893	1.05	0.95
NCI-H1666	0.99	–	0.836	0.806	0.683	0.909	0.762	0.882	0.795	0.596	0.604	0.504	0.481	0.368	0.337	1.02	1.14	1.12	1.05	1.18
HARA	1.08	1.14	1.19	1.09	1.1	1.09	0.25	0.38	0.267	0.377	0.424	0.616	0.444	0.409	0.439	0.547	0.47	0.415	0.462	0.466
NCI-H1651	1.03	0.99	0.911	0.941	0.952	0.466	0.536	0.399	0.509	0.397	0.319	0.336	0.259	0.154	0.153	0.62	0.509	0.523	0.539	0.542
LXF-289	0.985	1.03	0.992	1.04	0.99	1.04	1.11	1.09	1.2	1.06	0.432	0.545	0.498	0.504	0.495	0.802	0.839	0.666	0.849	0.782
NCI-H1437	0.544	0.502	0.433	0.536	0.509	1.11	0.994	1.04	1.09	0.877	0.317	0.269	0.242	0.256	0.158	0.919	0.915	0.856	0.925	0.751
HCC-827	1.03	1.07	1.01	1.02	1.1	0.134	0.214	0.197	0.191	0.174	0.429	0.409	0.401	0.401	0.408	0.858	0.828	1.04	0.85	0.941
HCC-15	1.04	1.06	0.967	0.937	1.01	1.21	1.18	1.05	1.03	1.35	–	0.518	0.355	0.148	0.135	0.976	0.915	0.866	0.945	0.803
EKVX	1.12	1.09	1.03	1.16	1.06	0.719	0.844	0.794	0.725	0.486	0.255	0.236	0.237	0.245	0.22	0.84	0.685	0.658	0.783	0.775
NCI-H2126	1.11	1.13	1.08	1.08	1.07	0.913	0.921	0.966	0.985	1	0.556	0.531	0.475	0.299	0.273	0.799	0.761	0.733	0.747	0.619
ABC-1	0.291	0.308	0.35	0.427	0.284	0.443	0.937	–	0.655	0.6	0.223	0.161	0.206	0.188	0.156	1.41	1.08	1.3	1.3	1.28
A-427	1.04	0.889	0.994	1.05	0.871	0.733	0.857	0.713	0.463	0.482	0.263	0.337	0.292	0.337	0.33	0.991	0.869	0.876	0.875	0.888
NCI-H1915	0.929	1	0.9	0.925	0.913	0.694	0.761	0.644	0.688	0.714	0.354	0.355	0.367	0.375	0.353	0.515	0.528	0.478	0.511	0.483
LOU-NH91	0.52	0.485	0.462	0.467	0.454	–	0.79	0.77	0.722	0.429	0.505	0.695	0.783	0.698	0.591	1.03	0.796	0.871	0.915	0.858
NCI-H1734	0.878	0.894	0.836	0.883	0.518	0.515	0.58	0.539	0.318	0.283	0.385	0.413	0.356	0.262	0.261	0.826	0.804	0.651	0.769	0.441

Cell Line	relative viability (BAY61-3606 + Bortezomib; first compound 0.02 µM)	relative viability (BAY61-3606 + Bortezomib; first compound 0.06325 µM)	relative viability (BAY61-3606 + Bortezomib; first compound 0.2 µM)	relative viability (BAY61-3606 + Bortezomib; first compound 0.6325 µM)	relative viability (BAY61-3606 + Bortezomib; first compound 2 µM)	relative viability (Doxorubicin + AZD7762; first compound 0.001 µM)	relative viability (Doxorubicin + AZD7762; first compound 0.003162 µM)	relative viability (Doxorubicin + AZD7762; first compound 0.01 µM)	relative viability (Doxorubicin + AZD7762; first compound 0.03162 µM)	relative viability (Doxorubicin + AZD7762; first compound 0.1 µM)	relative viability (Doxorubicin + Phenformin; first compound 0.001 µM)	relative viability (Doxorubicin + Phenformin; first compound 0.003162 µM)	relative viability (Doxorubicin + Phenformin; first compound 0.01 µM)	relative viability (Doxorubicin + Phenformin; first compound 0.03162 µM)	relative viability (Doxorubicin + Phenformin; first compound 0.1 µM)	relative viability (BAY61-3606 + Vorinostat; first compound 0.02 µM)	relative viability (BAY61-3606 + Vorinostat; first compound 0.06325 µM)	relative viability (BAY61-3606 + Vorinostat; first compound 0.2 µM)	relative viability (BAY61-3606 + Vorinostat; first compound 0.6325 µM)	relative viability (BAY61-3606 + Vorinostat; first compound 2 µM)
LCLC-97TM1	0.639	0.73	0.527	0.533	0.702	0.235	0.218	0.303	0.244	0.211	0.449	0.481	0.402	0.467	0.392	0.893	0.818	0.534	0.778	0.589
HCC-366	1.04	1.16	1.1	0.998	0.964	0.278	0.234	0.233	0.117	0.0686	–	0.614	0.601	0.48	0.395	0.383	0.385	0.175	0.345	0.244
BEN	0.99	0.829	0.764	0.799	0.931	0.96	0.65	0.82	0.562	0.624	0.251	0.231	0.278	0.256	0.283	0.545	0.577	0.573	0.546	0.588
NCI-H1703	0.486	0.321	0.291	0.368	0.234	0.131	0.146	0.146	0.119	0.114	–	–	–	–	–	–	–	–	–	–
LCLC-103H	1.28	1.01	1.03	1.07	1.05	0.781	0.815	0.75	0.767	0.826	0.341	0.37	0.345	0.293	0.354	0.782	0.716	0.724	0.791	0.789
NCI-H441	0.729	0.51	0.479	0.607	0.434	1.05	1.07	0.954	0.853	0.912	–	0.682	0.438	0.218	0.245	0.997	0.88	0.916	0.803	0.678
ChaGo-K-1	1.22	0.933	1.03	0.917	1.1	0.857	0.922	0.873	0.846	0.811	0.438	0.522	0.503	0.363	0.223	0.72	0.767	0.715	0.714	0.793
NCI-H1993	1.08	1.02	0.976	1.12	0.848	0.856	0.882	0.708	0.73	0.579	0.508	0.494	0.455	0.491	0.453	1.06	0.718	0.756	0.0488	0.67
NCI-H23	0.97	1.36	0.871	1.13	0.77	0.142	0.249	0.229	0.204	0.208	–	0.84	0.806	0.58	0.486	0.542	0.701	0.53	0.553	0.501
NCI-H2405	0.992	0.973	0.961	0.964	0.942	0.785	0.802	0.801	0.682	0.381	0.346	0.373	0.436	0.419	0.355	1.17	1.02	1.15	0.968	0.824
HCC-44	0.889	0.847	0.845	0.878	0.947	0.938	1.02	1.01	1.04	0.993	0.207	0.244	0.341	0.151	0.162	1.05	1.05	1	0.966	1.26
EMC-BAC-2	1.11	1.13	1.06	1.09	1.08	1.11	1.03	0.89	0.636	0.691	0.621	0.462	0.416	0.265	0.206	0.499	0.385	0.6	0.42	0.425
NCI-H2342	–	–	–	–	–	0.522	0.491	0.485	0.426	0.496	0.638	0.54	0.527	0.552	0.553	0.87	0.818	0.835	0.867	0.762
NCI-H1793	–	–	–	–	–	–	0.432	0.574	0.298	0.358	–	0.291	0.355	0.334	0.429	0.842	0.83	0.684	1.04	0.989
NCI-H358	–	–	–	–	–	0.548	0.542	0.597	0.367	0.258	0.299	0.307	0.176	0.0992	0.0721	0.697	0.759	0.631	0.658	0.386
NCI-H1944	–	–	–	–	–	0.512	0.573	0.451	0.483	0.46	0.182	0.224	0.206	0.177	0.172	0.65	0.538	0.515	0.559	0.487
NCI-H1792	0.967	0.987	0.879	0.943	0.976	0.653	0.824	0.721	0.522	0.45	–	0.299	0.262	0.337	0.19	–	–	–	–	–
